Measurements as given in US20240124466A1, “COMPOUNDS AND USE THEREOF FOR TREATMENT OF NEURODEGENERATIVE, DEGENERATIVE AND METABOLIC DISORDERS” (VOVA IDA THERAPEUTICS, INC., priority 2020, published 2024).

Each compound was assayed on PK1 neuroblastoma cells exposed to TPrP (assay: cells). Conditions: Neuroblastoma cell, 96 h, read-out: TPrP EC50.

**Q.** Which EC50 does the source give for `Cc1ccc(-c2ccnc(Cl)c2)cc1S(=O)(=O)N1CCN(CCO)CC1` [SR-34793, 2-(4-((5-(2-Chloropyridin-4-yl)-2-methylphenyl)sulfonyl)piperazin-1-yl)ethan-1-ol] here?
**A.** 40 nM

**Q.** Which EC50 does the source give for `Cc1ccc(-c2nnc(-c3ccccc3)[nH]2)cc1S(=O)(=O)NCc1cccnc1` [SR-31584, 2-Methyl-5-(5-phenyl-4H-1,2,4-triazol-3-yl)-N-(pyridin-3-ylmethyl)benzene sulfonamide] here?
**A.** 90 nM

**Q.** For `Cc1ccc(-c2n[nH]c3ccccc23)cc1S(=O)(=O)N1CCOCC1` [SR-27564, 4-((5-(1H-Indazol-3-yl)-2-methylphenyl)sulfonyl)morpholine], which EC50 is on record?
**A.** 135 nM

**Q.** `Cc1ccc(-c2nnc(-c3ccncc3)[nH]2)cc1S(=O)(=O)N1CCOCC1` [SR-28224, 4-((2-Methyl-5-(5-(pyridin-4-yl)-4H-1,2,4-triazol-3-yl)phenyl)sulfonyl) morpholine] was tested. Which EC50 did it give?
**A.** 18 nM

**Q.** How did the EC50 turn out when `C=CCN1C[C@H](C)N(S(=O)(=O)c2cc(-c3ccnc(Cl)c3)ccc2C)C[C@H]1C` (relative stereo) [SR-35465, (trans)-1-allyl-4-((5-(2-chloropyridin-4-yl)-2-methylphenyl)sulfonyl)-2,5-dimethylpiperazine] was run?
**A.** > 1500 nM

**Q.** With `Cc1ccc(-c2ccnc(-c3ccccc3)c2)cc1S(=O)(=O)N1CCOCC1` [SR-28984, 4-((2-Methyl-5-(2-phenylpyridin-4-yl)phenyl)sulfonyl)morpholine] as the compound, how does the EC50 read?
**A.** 30 nM

**Q.** Which EC50 does the source give for `Cc1ccc(-c2nnc(-c3ccccc3)[nH]2)cc1S(=O)(=O)N1CCOCC1C` (centres unmarked) [SR-32286, 3-Methyl-4-((2-methyl-5-(5-phenyl-4H-1,2,4-triazol-3-yl)phenyl)sulfonyl) morpholine] here?
**A.** 110 nM

**Q.** Which EC50 does the source give for `Cc1ccc(-c2ccnc(Cl)c2)cc1S(=O)(=O)N1CCNCC1` [SR-35422, 1-((5-(2-Chloropyridin-4-yl)-2-methylphenyl)sulfonyl)piperazine] here?
**A.** < 5 nM

**Q.** `Cc1ccc(-c2nnc(-c3ccccc3)[nH]2)cc1S(=O)(=O)N1CC(O)C1` [SR-32944, 1-((2-Methyl-5-(5-phenyl-4H-1,2,4-triazol-3-yl)phenyl)sulfonyl)azetidin-3-ol] was tested. Which EC50 did it give?
**A.** 15 nM

**Q.** How did the EC50 turn out when `Cc1ccc(-c2nnc(-c3ccccc3)[nH]2)cc1S(=O)(=O)NC(C)(C)CO` [SR-32184, N-(1-hydroxy-2-methylpropan-2-yl)-2-methyl-5-(5-phenyl-4H-1,2,4-triazol-3-yl)benzenesulfonamide] was run?
**A.** 180 nM

**Q.** For `Cc1ccc(-c2coc(-c3ccccc3)c2)cc1S(=O)(=O)N1CCOCC1` [SR-29044, 4-((2-Methyl-5-(5-phenylfuran-3-yl)phenyl)sulfonyl)morpholine], which EC50 is on record?
**A.** > 1200 nM

**Q.** With `Cc1ccc(-c2nnc(-c3ccccc3)[nH]2)cc1S(=O)(=O)N1CCOCC1CO` (centres unmarked) [SR-32945, (4-((2-Methyl-5-(5-phenyl-4H-1,2,4-triazol-3-yl)phenyl)sulfonyl)morpholin-3-yl)methanol] as the compound, how does the EC50 read?
**A.** 300 nM

**Q.** `Cc1ccc(-c2nnc(-c3ccccc3)[nH]2)cc1S(=O)(=O)NCCN1CCOCC1` [SR-31824, 2-Methyl-N-(2-morpholinoethyl)-5-(5-phenyl-4H-1,2,4-triazol-3-yl)benzene sulfonamide] was tested. Which EC50 did it give?
**A.** > 1500 nM

**Q.** `Cc1ccc(-c2nnc(-c3ccccc3)[nH]2)cc1S(=O)(=O)N1C2CCC1COC2` [SR-32704, 8-((2-Methyl-5-(5-phenyl-4H-1,2,4-triazol-3-yl)phenyl)sulfonyl)-3-oxa-8-azabicyclo[3.2.1]octane] was tested. Which EC50 did it give?
**A.** 800 nM

**Q.** How did the EC50 turn out when `Cc1cc(C)c(S(=O)(=O)N2CCN(CCO)CC2)cc1-c1ccnc(Cl)c1` [SR-34951, 2-(4-((5-(2-Chloropyridin-4-yl)-2,4-dimethylphenyl)sulfonyl)piperazin-1-yl)ethan-1-ol] was run?
**A.** 90 nM

**Q.** Which EC50 does the source give for `Cc1ccc(-c2nnc(-c3ccccc3)[nH]2)cc1S(=O)(=O)N1C[C@H]2COC[C@H]2C1` [SR-32404, (3aR,6aS)-5-((2-Methyl-5-(5-phenyl-4H-1,2,4-triazol-3-yl)phenyl)sulfonyl) hexahydro-1H-furo[3,4-c]pyrrole] here?
**A.** 800 nM

**Q.** With `Cc1ccc(-c2nnc(-c3ccccc3)[nH]2)cc1S(=O)(=O)N1CCN(CCNC(=O)OC(C)(C)C)CC1` [SR-34024, tert-Butyl (2-(4-((2-methyl-5-(5-phenyl-4H-1,2,4-triazol-3-yl)phenyl)sulfonyl)piperazin-1-yl)ethyl)carbamate] as the compound, how does the EC50 read?
**A.** ~1500 nM

**Q.** For `N#Cc1ccc(-c2nnc(-c3ccccc3)[nH]2)cc1S(=O)(=O)N1CCOCC1` [SR-27504, 2-(Morpholinosulfonyl)-4-(5-phenyl-4H-1,2,4-triazol-3-yl)benzonitrile], which EC50 is on record?
**A.** > 320 nM

**Q.** With `Cc1ccc(-c2nnc(-c3ccccc3)[nH]2)cc1S(=O)(=O)N1CCN(CCc2ccncc2)CC1` [SR-33364, 1-((2-Methyl-5-(5-phenyl-4H-1,2,4-triazol-3-yl)phenyl)sulfonyl)-4-(2-(pyridin-4-yl)ethyl)piperazine] as the compound, how does the EC50 read?
**A.** 5 nM

**Q.** Which EC50 does the source give for `COc1ccc(-c2nnc(-c3ccc(C)c(S(=O)(=O)N4CCOCC4)c3)[nH]2)cc1` [SR-28104, 4-((5-(5-(4-Methoxyphenyl)-4H-1,2,4-triazol-3-yl)-2-methylphenyl)sulfonyl) morpholine] here?
**A.** 15 nM

**Q.** How did the EC50 turn out when `Cc1ccc(NCc2ccncc2)cc1S(=O)(=O)N1CCOCC1` [SR-25464, 4-Methyl-3-(morpholinosulfonyl)-N-(pyridin-4-ylmethyl)aniline] was run?
**A.** > 320 nM

**Q.** Which EC50 does the source give for `Cc1ccc(-c2nnc(C3CCCCC3)[nH]2)cc1S(=O)(=O)N1CCOCC1` [SR-28565, 4-((5-(5-Cyclohexyl-4H-1,2,4-triazol-3-yl)-2-methylphenyl)sulfonyl)morpholine] here?
**A.** 150 nM

**Q.** Which EC50 does the source give for `O=S(=O)(c1cc(-c2nnc(-c3ccccc3)[nH]2)ccc1OC(F)(F)F)N1CCOCC1` [SR-31545, 4-((5-(5-Phenyl-4H-1,2,4-triazol-3-yl)-2-(trifluoromethoxy)phenyl)sulfonyl) morpholine] here?
**A.** > 1500 nM

**Q.** With `Cc1ccc(-c2nnc(-c3ccc(F)cc3)[nH]2)cc1S(=O)(=O)N1CCOCC1` [SR-27964, 4-((5-(5-(4-Fluorophenyl)-4H-1,2,4-triazol-3-yl)-2-methylphenyl)sulfonyl) morpholine] as the compound, how does the EC50 read?
**A.** 40 nM

**Q.** Which EC50 does the source give for `O=S(=O)(c1cc(-c2nnc(-c3ccccc3)[nH]2)ccc1Cl)N1CCOCC1` [SR-26525, 4-((2-Chloro-5-(5-phenyl-4H-1,2,4-triazol-3-yl)phenyl)sulfonyl)morpholine] here?
**A.** 100 nM

**Q.** Which EC50 does the source give for `Cc1ccc(-c2cccc3[nH]ncc23)cc1S(=O)(=O)N1CCOCC1` [SR-27484, 4-((5-(1H-Indazol-4-yl)-2-methylphenyl)sulfonyl)morpholine] here?
**A.** > 320 nM

**Q.** How did the EC50 turn out when `CC(=O)N1CCN(CCn2cc(-c3ccc(C)c(S(=O)(=O)N4CCOCC4)c3)cn2)CC1` [SR-25484, 1-(4-(2-(4-(4-Methyl-3-(morpholinosulfonyl)phenyl)-1H-pyrazol-1-yl)ethyl)piperazin-1-yl)ethan-1-one] was run?
**A.** 140 nM

**Q.** `O=S(=O)(c1ccc(-c2nnc(-c3ccccc3)[nH]2)cc1C(F)(F)F)N1CCOCC1` [SR-26444, 4-((4-(5-Phenyl-4H-1,2,4-triazol-3-yl)-2-(trifluoromethyl)phenyl)sulfonyl) morpholine] was tested. Which EC50 did it give?
**A.** > 320 nM

**Q.** For `Cc1ccc(-c2ccnc(N3CCOCC3)c2)cc1S(=O)(=O)N1CCOCC1` [SR-29224, 4-(4-(4-Methyl-3-(morpholinosulfonyl)phenyl)pyridin-2-yl)morpholine], which EC50 is on record?
**A.** 6 nM

**Q.** Which EC50 does the source give for `Cc1ccc(-c2ccnc(-c3ccc(F)cc3)c2)cc1S(=O)(=O)N1CCOCC1` [SR-28924, 4-((5-(2-(4-Fluorophenyl)pyridin-4-yl)-2-methylphenyl)sulfonyl)morpholine] here?
**A.** 40 nM

**Q.** How did the EC50 turn out when `Cc1ccc(-c2nnc(-c3ccc(F)c(F)c3)[nH]2)cc1S(=O)(=O)N1CCOCC1` [SR-27984, 4-((5-(5-(3,4-Difluorophenyl)-4H-1,2,4-triazol-3-yl)-2-methylphenyl)sulfonyl) morpholine] was run?
**A.** 20 nM

**Q.** With `Cc1ccc(-c2nnc(-c3ccccc3)[nH]2)cc1S(=O)(=O)N1CCC(O)(c2ccccc2)CC1` [SR-32784, 1-((2-Methyl-5-(5-phenyl-4H-1,2,4-triazol-3-yl)phenyl)sulfonyl)-4-phenyl piperidin-4-ol] as the compound, how does the EC50 read?
**A.** > 1500 nM

**Q.** `Cc1ccc(-c2ccnc(Cl)c2)cc1S(=O)(=O)N1CCN(CC(C)O)CC1` (centres unmarked) [SR-35464, 1-(4-((5-(2-Chloropyridin-4-yl)-2-methylphenyl)sulfonyl)piperazin-1-yl)propan-2-ol] was tested. Which EC50 did it give?
**A.** 800 nM

**Q.** How did the EC50 turn out when `O=S(=O)(c1cc(-c2nnc(-c3ccccc3)[nH]2)ccn1)N1CCOCC1` [SR-28004, 4-((4-(5-Phenyl-4H-1,2,4-triazol-3-yl)pyridin-2-yl)sulfonyl)morpholine] was run?
**A.** > 1200 nM

**Q.** `Cc1ccc(-c2ccnc(Cl)c2)cc1S(=O)(=O)N1CCN(CC(F)F)CC1` [SR-35124, 1-((5-(2-Chloropyridin-4-yl)-2-methylphenyl)sulfonyl)-4-(2,2-difluoroethyl) piperazine] was tested. Which EC50 did it give?
**A.** > 1500 nM

**Q.** For `Cc1ccc(-c2ccnc(Cl)c2)cc1S(=O)(=O)N1CCN(C(=O)c2ccco2)CC1` [SR-35516, (4-((5-(2-Chloropyridin-4-yl)-2-methylphenyl)sulfonyl)piperazin-1-yl)(furan-2-yl)methanone], which EC50 is on record?
**A.** 270 nM

**Q.** How did the EC50 turn out when `Cc1ccc(-c2csc(-c3ccccc3)c2)cc1S(=O)(=O)N1CCOCC1` [SR-29184, 4-((2-Methyl-5-(5-phenylthiophen-3-yl)phenyl)sulfonyl)morpholine] was run?
**A.** > 1200 nM

**Q.** For `Cc1ccc(-c2nnc(-c3ccccc3)s2)cc1S(=O)(=O)N1CCOCC1` [SR-27524, 4-((2-Methyl-5-(5-phenyl-1,3,4-thiadiazol-2-yl)phenyl)sulfonyl)morpholine], which EC50 is on record?
**A.** 180 nM

**Q.** `C[C@@H]1CN(S(=O)(=O)c2cc(-c3nnc(-c4ccccc4)[nH]3)ccc2C(F)(F)F)C[C@H](C)O1` [SR-30786, (cis)-2,6-dimethyl-4-((5-(5-phenyl-4H-1,2,4-triazol-3-yl)-2-(trifluoromethyl)phenyl)sulfonyl)morpholine] was tested. Which EC50 did it give?
**A.** > 1200 nM

**Q.** For `Cc1ccc(-c2nnc(-c3ccccc3)[nH]2)cc1S(=O)(=O)N1CCC2(CC1)OCCO2` [SR-32705, 8-((2-Methyl-5-(5-phenyl-4H-1,2,4-triazol-3-yl)phenyl)sulfonyl)-1,4-dioxa-8-azaspiro[4.5]decane], which EC50 is on record?
**A.** > 1500 nM

**Q.** `Cc1ccc(-c2nnc(-c3ccccc3)[nH]2)cc1S(=O)(=O)NCc1ccccn1` [SR-32144, 2-Methyl-5-(5-phenyl-4H-1,2,4-triazol-3-yl)-N-(pyridin-2-ylmethyl)benzene sulfonamide] was tested. Which EC50 did it give?
**A.** > 1500 nM
